PubChem BioAssay (NCI)
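Cells were grown in 96-well plates and exposed to each compound for 48 hours at five concentrations; endpoints were interpolated linearly between bracketing concentrations, or set to the highest concentration if not reached. TGI marks complete inhibition of growth.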

Tests used:
Assay in all cases: NCI tumour cell line growth inhibition, 48 h
786-0 renal = system: 786-0 renal
A498 renal = system: A498 renal
A549 NSCLC = system: A549 NSCLC
ACHN renal = system: ACHN renal
CAKI-1 renal = system: CAKI-1 renal
CCRF-CEM leukemia = system: CCRF-CEM leukemia
COLO 205 colon = system: COLO 205 colon
DLD-1 colon = system: DLD-1 colon
DMS 114 small cell lung = system: DMS 114 small cell lung
EKVX NSCLC = system: EKVX NSCLC
HCC-2998 colon = system: HCC-2998 colon
HCT-116 colon = system: HCT-116 colon
HCT-15 colon = system: HCT-15 colon
HL-60(TB) leukemia = system: HL-60(TB) leukemia
HOP-62 NSCLC = system: HOP-62 NSCLC
HOP-92 NSCLC = system: HOP-92 NSCLC
HT29 colon = system: HT29 colon
IGROV1 ovarian = system: IGROV1 ovarian
K-562 leukemia = system: K-562 leukemia
KM12 colon = system: KM12 colon
KM20L2 colon = system: KM20L2 colon
LOX IMVI melanoma = system: LOX IMVI melanoma
LXFL 529 NSCLC = system: LXFL 529 NSCLC
M14 melanoma = system: M14 melanoma
M19-MEL melanoma = system: M19-MEL melanoma
MALME-3M melanoma = system: MALME-3M melanoma
MOLT-4 leukemia = system: MOLT-4 leukemia
NCI-H226 lung = system: NCI-H226 lung
NCI-H23 lung = system: NCI-H23 lung
NCI-H460 lung = system: NCI-H460 lung
OVCAR-3 ovarian = system: OVCAR-3 ovarian
OVCAR-4 ovarian = system: OVCAR-4 ovarian
OVCAR-5 ovarian = system: OVCAR-5 ovarian
OVCAR-8 ovarian = system: OVCAR-8 ovarian
RPMI-8226 leukemia = system: RPMI-8226 leukemia
RXF 393 renal = system: RXF 393 renal
RXF-631 renal = system: RXF-631 renal
SF-268 CNS = system: SF-268 CNS
SF-295 CNS = system: SF-295 CNS
SF-539 CNS = system: SF-539 CNS
SK-MEL-2 melanoma = system: SK-MEL-2 melanoma
SK-MEL-28 melanoma = system: SK-MEL-28 melanoma
SK-MEL-5 melanoma = system: SK-MEL-5 melanoma
SK-OV-3 ovarian = system: SK-OV-3 ovarian
SN12C renal = system: SN12C renal
SNB-19 CNS = system: SNB-19 CNS
SNB-75 CNS = system: SNB-75 CNS
SNB-78 CNS = system: SNB-78 CNS
SR leukemia = system: SR leukemia
SW-620 colon = system: SW-620 colon
TK-10 renal = system: TK-10 renal
U251 CNS = system: U251 CNS
UACC-257 melanoma = system: UACC-257 melanoma
UACC-62 melanoma = system: UACC-62 melanoma
UO-31 renal = system: UO-31 renal
XF 498 CNS = system: XF 498 CNS
HOP-18 NSCLC = system: HOP-18 NSCLC
NCI-H522 lung = system: NCI-H522 lung

CCC1(c2ccncc2)CCC(=O)NC1=O (configuration not stated)
TGI (786-0 renal): > 100 µM | TGI (A498 renal): > 100 µM | TGI (A549 NSCLC): > 100 µM | TGI (ACHN renal): > 100 µM | TGI (CAKI-1 renal): > 100 µM | TGI (CCRF-CEM leukemia): > 100 µM | TGI (COLO 205 colon): > 100 µM | TGI (DLD-1 colon): > 100 µM | TGI (DMS 114 small cell lung): > 100 µM | TGI (EKVX NSCLC): > 100 µM | TGI (HCC-2998 colon): > 100 µM | TGI (HCT-116 colon): > 100 µM | TGI (HCT-15 colon): > 100 µM | TGI (HL-60(TB) leukemia): > 100 µM | TGI (HOP-62 NSCLC): > 100 µM | TGI (HOP-92 NSCLC): > 100 µM | TGI (HT29 colon): > 100 µM | TGI (IGROV1 ovarian): > 100 µM | TGI (K-562 leukemia): > 100 µM | TGI (KM12 colon): > 100 µM | TGI (KM20L2 colon): > 100 µM | TGI (LOX IMVI melanoma): > 100 µM | TGI (LXFL 529 NSCLC): > 100 µM | TGI (M14 melanoma): > 100 µM | TGI (M19-MEL melanoma): > 100 µM | TGI (MALME-3M melanoma): > 100 µM | TGI (MOLT-4 leukemia): > 100 µM | TGI (NCI-H226 lung): > 100 µM | TGI (NCI-H23 lung): > 100 µM | TGI (NCI-H460 lung): > 100 µM | TGI (OVCAR-3 ovarian): > 100 µM | TGI (OVCAR-4 ovarian): > 100 µM | TGI (OVCAR-5 ovarian): > 100 µM | TGI (OVCAR-8 ovarian): > 100 µM | TGI (RPMI-8226 leukemia): > 100 µM | TGI (RXF 393 renal): > 100 µM | TGI (RXF-631 renal): > 100 µM | TGI (SF-268 CNS): > 100 µM | TGI (SF-295 CNS): > 100 µM | TGI (SF-539 CNS): > 100 µM | TGI (SK-MEL-2 melanoma): > 100 µM | TGI (SK-MEL-28 melanoma): > 100 µM | TGI (SK-MEL-5 melanoma): > 100 µM | TGI (SK-OV-3 ovarian): > 100 µM | TGI (SN12C renal): > 100 µM | TGI (SNB-19 CNS): > 100 µM | TGI (SNB-75 CNS): > 100 µM | TGI (SNB-78 CNS): > 100 µM | TGI (SR leukemia): > 100 µM | TGI (SW-620 colon): > 100 µM | TGI (TK-10 renal): > 100 µM | TGI (U251 CNS): > 100 µM | TGI (UACC-257 melanoma): > 100 µM | TGI (UACC-62 melanoma): > 100 µM | TGI (UO-31 renal): > 100 µM | TGI (XF 498 CNS): > 100 µM

CCCNCC(O)/C=C/[Si](C)(C)C (configuration not stated) (tested in a mixture with another compound)
TGI (A498 renal): > 100 µM | TGI (A549 NSCLC): > 100 µM | TGI (ACHN renal): > 100 µM | TGI (CCRF-CEM leukemia): > 100 µM | TGI (COLO 205 colon): > 100 µM | TGI (DLD-1 colon): > 100 µM | TGI (DMS 114 small cell lung): > 100 µM | TGI (EKVX NSCLC): > 100 µM | TGI (HCC-2998 colon): > 100 µM | TGI (HCT-116 colon): > 100 µM | TGI (HCT-15 colon): > 100 µM | TGI (HL-60(TB) leukemia): > 100 µM | TGI (HOP-18 NSCLC): > 100 µM | TGI (HOP-92 NSCLC): > 100 µM | TGI (HT29 colon): > 100 µM | TGI (IGROV1 ovarian): > 100 µM | TGI (K-562 leukemia): > 100 µM | TGI (KM12 colon): > 100 µM | TGI (KM20L2 colon): > 100 µM | TGI (LOX IMVI melanoma): > 100 µM | TGI (LXFL 529 NSCLC): > 100 µM | TGI (M14 melanoma): > 100 µM | TGI (M19-MEL melanoma): > 100 µM | TGI (MALME-3M melanoma): > 100 µM | TGI (NCI-H23 lung): > 100 µM | TGI (NCI-H460 lung): > 100 µM | TGI (NCI-H522 lung): > 100 µM | TGI (OVCAR-3 ovarian): > 100 µM | TGI (OVCAR-5 ovarian): > 100 µM | TGI (OVCAR-8 ovarian): > 100 µM | TGI (RPMI-8226 leukemia): > 100 µM | TGI (RXF 393 renal): > 100 µM | TGI (RXF-631 renal): > 100 µM | TGI (SF-295 CNS): > 100 µM | TGI (SF-539 CNS): > 100 µM | TGI (SK-MEL-2 melanoma): > 100 µM | TGI (SK-MEL-28 melanoma): > 100 µM | TGI (SK-MEL-5 melanoma): > 100 µM | TGI (SK-OV-3 ovarian): > 100 µM | TGI (SN12C renal): > 100 µM | TGI (SNB-19 CNS): > 100 µM | TGI (SNB-75 CNS): > 100 µM | TGI (SNB-78 CNS): > 100 µM | TGI (SR leukemia): > 100 µM | TGI (SW-620 colon): > 100 µM | TGI (TK-10 renal): > 100 µM | TGI (U251 CNS): > 100 µM | TGI (UACC-257 melanoma): > 100 µM | TGI (UACC-62 melanoma): > 100 µM | TGI (UO-31 renal): > 100 µM | TGI (XF 498 CNS): 74.8 µM
